Data reported in a melting point compilation (Tetko et al.).

Row | Structure (SMILES) | melting point
1 | NC(N)=NCCCCCCCCNCCCCCCCCN=C(N)N | 60 °C
2 | CC1(C)CC(=O)c2c(C(=O)c3ccc(Cl)cc3)noc2C1 | 126 °C
3 | Cc1cccc(N)c1N | 63.5 °C
4 | Cc1cc(Cl)cc2c(O)c(C(=O)O)cnc12 | 303 to 308 °C
5 | O=C(Nc1c(Cl)cc(Cl)cc1Cl)C(C(F)(F)F)C(F)(F)F | 218 to 220 °C
6 | COc1cc(C)c(C=O)cc1C | 31 to 35 °C
7 | NC(CO)CO | 54 °C
8 | O=C1OC(=O)C23CC4=C(CC=CC4)CC12CC1=C(CC=CC1)C3 (stereo not drawn) | 220 to 247 °C
9 | COC=C(C(=O)OC)C(=O)OC | 43 °C
10 | FC(Cl)C(F)Cl (stereo not drawn) | -101 °C
11 | Fc1cc2nc(S)[nH]c2cc1Cl | 298 to 301 °C
12 | CC=CC(C)(C)C | -115 °C
13 | CCCCCCCCCCCCCC(=O)OC(C)C | 3 °C
14 | CCCCCC(C)Br (stereo not drawn) | 47 °C
15 | CCOc1ccc2[nH]c(=S)sc2c1 | 199 °C
16 | N#Cc1ccc(N)c(C(F)(F)F)c1 | 62 °C
17 | N#Cc1ccc([N+](=O)[O-])cc1C(F)(F)F | 52 to 54 °C
18 | CC(=O)Nc1ccc(C#N)cc1OC(F)(F)F | 118 to 120 °C
19 | CCCCCCCCC=CCCCCCCCC(=O)O | 45 °C
20 | N#CC1=C(N)Oc2[nH]nc(C(F)(F)F)c2C1c1ccc(Cl)cc1Cl (stereo not drawn) | 199 °C
21 | CC(C)(C)c1cc(C(C)(C)C)c(O)cc1O | 120 to 121 °C
22 | CN1CCC(N2CCNCC2)CC1 | 31 °C
23 | N#Cc1cc(F)c(Cl)nc1Cl | 91 °C
24 | CC(C)C(N)CC(=O)O (stereo not drawn) | 206 to 209 °C
25 | Cc1cc(Br)cc([N+](=O)[O-])c1 | 83 °C
26 | Oc1cccc(Cl)c1O | 48.5 °C
27 | COc1cc(CC(=O)O)cc(OC)c1OC | 120 °C

Row | Structure (SMILES) | melting point
28 | Cc1cc([N+](=O)[O-])c(Cl)c([N+](=O)[O-])c1 | 114 to 116 °C
29 | CC(C)(C)c1cc(N)c(C(N)=O)s1 | 146 to 148 °C
30 | C[Si](C)(C)O[Si](C)(C)O[Si](C)(C)C | -80 °C
31 | Cc1cc(C(N)=O)no1 | 171 to 173 °C
32 | Oc1ccnc2cc(C(F)(F)F)ccc12 | 266 to 270 °C
33 | NNc1ccccn1 | 46.6 °C
34 | Cc1ccc(N)c(Cl)c1 | 7 °C
35 | CCC#CCCCCC(=O)O | 14 °C
36 | ClC1=C(Cl)C(Cl)(Cl)C(Cl)=C1Cl | -9 °C
37 | O=[N+]([O-])c1cc(Cl)c(Cl)cc1Cl | 57.5 °C
38 | CC(=O)C1(C)CCC2C3C=C(C)C4=CC(=O)CCC4(C)C3CCC21C (stereo not drawn) | 144 °C
39 | COc1cc(C=C(C(=O)O)C(=Cc2cc(OC)c(OC)c(OC)c2)C(=O)O)cc(OC)c1OC | 229 °C
40 | COc1cc(I)c(OC)cc1I | 171 to 173 °C
41 | COc1cc(Cl)c(Cl)c(Cl)c1OC | 66 °C
42 | COc1c(Cl)cc([N+](=O)[O-])cc1Cl | 97 to 100 °C
43 | Oc1c(F)c(F)c2c(F)c(F)c(F)c(F)c2c1F | 120 to 124 °C
44 | Cc1cccc(NC(=O)C(C(F)(F)F)C(F)(F)F)c1 | 175 °C
45 | CC(C)CCNCCC(C)C | -44 °C
46 | CC(=O)OC1=C(C)C2(OC(C)=O)CCC1C1C(=O)NC(=O)C12 (stereo not drawn) | 161 to 162 °C
47 | O=C(O)c1ccc(C(F)(F)F)nc1Cl | 120 to 122 °C
48 | Cn1cnc2c(N)ncnc21 | 300 to 302 °C
49 | Cc1cc(NS(=O)(=O)c2ccc(N)cc2)sn1 | 192 °C
50 | CC(C)CC=O | -51 °C
51 | O=C(Cn1cncn1)c1ccc(F)cc1F | 105 °C
52 | O=C1C(Cl)=C(Cl)C(=O)c2ccccc21 | 195 °C
53 | Cc1c(F)c(F)c(C)c(F)c1F | 36 °C
54 | O=C1C2CCC1C1CCC2O1 | 81 °C

Row | Structure (SMILES) | melting point
55 | CC(C)c1cccc(C(C)C)c1N | -45 °C
56 | O=S(=O)(Cl)c1sccc1C1OCCO1 | 93 to 94 °C
57 | O=S(=O)(O)CC(O)CN(CCO)CCO (stereo not drawn) | 189 to 192 °C
58 | CCCCCCCCSC(=O)Oc1cc(Cl)nnc1-c1ccccc1 | 27 °C
59 | CC(C)(C)C(O)C(=Cc1ccc(Cl)cc1Cl)n1cncn1 (stereo not drawn) | 148 to 149 °C
60 | Nc1c(F)c(F)nc(F)c1F | 86 °C
61 | Clc1c(Cl)c(Cl)c2c(Cl)c(Cl)c(Cl)c(Cl)c2c1Cl | 198 °C
62 | CC1COC(=O)O1 (stereo not drawn) | -48.8 °C
63 | Cc1cc(O)c(C)c(C)c1O | 173 °C
64 | O=C1CCc2ccc(F)cc21 | 61 to 63 °C
65 | Cc1cc(Br)c(N)c(Br)c1 | 74 °C
66 | CC[N+](CC)(CC)S(=O)(=O)[N-]C(=O)OC | 77 °C
67 | Clc1ccc2c(c1)Oc1cc(Cl)c(Cl)cc1O2 | 162 °C
68 | O=Cc1ccc(F)cc1 | -10 °C
69 | Nc1cccc(S(=O)(=O)N2CCOCC2)c1 | 132 to 135 °C
70 | CSc1nc(N)c(C(N)=O)s1 | 199 to 200 °C
71 | COC(=O)CCC(C)C1CCC2C3CCC4CC(OC(C)=O)CCC4(C)C3CC(OC(C)=O)C12C (stereo not drawn) | 116 °C
72 | CC(C)OC(=O)COc1cc(Cl)c(Cl)cc1Cl | 45 °C
73 | CC12CC(=CO)C(=O)CC1CCC1C2CCC2(C)C1CCC2(C)O (stereo not drawn) | 188 °C
74 | O=C1CC[C@H](C(=O)O)O1 | 69 to 72 °C
75 | Cc1cc(C)c(C#N)c(C)c1 | 53 °C
76 | O=[N+]([O-])c1ncc[nH]1 | 287 °C
77 | Cc1cc(C(N)=S)n(C)n1 | 170 °C
78 | CC(=O)c1cc(OC(F)(F)F)ccc1O | 30 °C
79 | Cc1csc2ncnc(Cl)c12 | 137 to 138 °C

The next lines start with the values.

Row | melting point | Structure (SMILES)
80 | 35.5 °C | Cc1ccc(O)cc1
81 | 91 to 92 °C | Ic1ccc(-n2cccn2)cc1
82 | 39 °C | O=[N+]([O-])c1cccc(OCCBr)c1
83 | 107 °C | COC(=O)C(Cc1ccc(O)cc1)NC(=O)OC(C)(C)C (stereo not drawn)
84 | 82 to 86 °C | Cc1ccc(-c2cc[nH]n2)cc1
85 | 117 °C | NNc1cccc2ccccc12
86 | 62.8 °C | OCC(O)COc1ccccc1 (stereo not drawn)
87 | 121 to 123 °C | Cc1ccccc1C1(C#N)Cc2ccccc2C(=O)O1 (stereo not drawn)
88 | 187 °C | O=C1CCCC1C1(O)C(=O)Nc2ccccc21 (stereo not drawn)
89 | 54 to 56 °C | COc1ccccc1Oc1ccc(S(=O)(=O)Cl)cc1
90 | 220 to 222 °C | CC(C)(C)CC(=O)C=C1Nc2ccccc2NC1=CC(=O)CC(C)(C)C
91 | 47.5 °C | CCC(C(=O)O)c1ccccc1 (stereo not drawn)
92 | 63 to 65 °C | O=C(OCc1ccccc1)[C@@H](O)[C@H](O)C(=O)OCc1ccccc1
93 | 251 °C | NNC(=O)c1ccc(O)c(N)c1
94 | 217 °C | Oc1ccccc1C1Nn2c(COc3ccccc3)nnc2S1 (stereo not drawn)
95 | 124 °C | CCC(C(=O)O)c1ccc(-c2ccccc2)cc1 (stereo not drawn)
96 | 57 to 58 °C | CC(=O)Oc1c(-c2ccccc2)n(C(C)=O)c2cc([N+](=O)[O-])c(/C(Cl)=C/c3ccccc3)cc12
97 | 210 to 213 °C | Cc1cccc(Oc2ncccc2[N+](=O)[O-])c1C
98 | 139 °C | Cc1ccc(C(=O)C=CC(=O)O)cc1
99 | 200 to 202 °C | O=C(c1ccc(Br)cc1)c1noc(-c2ccc([N+](=O)[O-])cc2)c1S(=O)(=O)c1ccccc1
100 | 137 to 139 °C | CC(CC(=O)c1ccc(Cl)cc1)C(=O)O (stereo not drawn)
101 | 170 to 172 °C | Cc1c(C(N)=O)[nH]c2ccccc12
102 | 93.5 °C | Nc1cccc(-c2cccc(N)c2)c1
103 | 113 °C | CC(=O)Oc1cc(C)c(OC(C)=O)c2ccccc12
104 | 171 °C | S=C(NCC(c1ccccc1)c1ccccc1)Nc1ccccc1
105 | 156 °C | CC(=O)c1ccc(N2C(=O)C=CC2=O)cc1
106 | 61 °C | N#Cc1c(Cl)cccc1Oc1ccccc1

Row | melting point | Structure (SMILES)
107 | 164 °C | O=C(O)c1ccc(Cl)cc1Cl
108 | 148 °C | CCC1c2ccccc2N(C)C12C=Cc1cccc([N+](=O)[O-])c1O2 (stereo not drawn)
109 | 163 °C | Cc1ccc(CC(=O)Nc2ccc(C)cc2)cc1
110 | 196 to 197 °C | NC(=NO)c1cccc(C(=O)O)c1
111 | 95 °C | c1ccc(CNc2ccccn2)cc1
112 | 188 °C | S=c1oc2ccccc2n1CSCCCS
113 | 130 °C | COC(=O)c1ccc2cc(OC)ccc2c1
114 | 38 to 39 °C | Clc1ccc(OCCBr)cc1
115 | 153 °C | CC(C)(C)OC(=O)N[C@H](Cc1ccc(C#N)cc1)C(=O)O
116 | 211 to 212 °C | S=C(NN=Cc1c(-c2ccc(Cl)cc2)[nH]c2ccccc12)Nc1ccccc1
117 | 78 to 88 °C | N#CCc1ccc2ccccc2c1
118 | 114 to 115 °C | CC(=O)c1cc(-c2ccc(Cl)cc2)oc1C
119 | 110 °C | C#CC1(O)c2ccccc2-c2ccccc21
120 | 98 to 101 °C | c1ccc(C(OC[C@H]2CO2)(c2ccccc2)c2ccccc2)cc1
121 | 210 °C | O=C(C=NNc1ccccc1)c1ccc(C(=O)C=NNc2ccccc2)cc1
122 | 124 °C | CC(C)(C)OC(=O)N[C@@H](Cc1cccc(C#N)c1)C(=O)O
123 | 146 °C | O=c1n(-c2ccccc2)c(=O)n2n1C1OC3c4ccccc4C1C32 (stereo not drawn)
124 | 280 °C | O=C1c2cccc(O)c2C(=O)c2cccc(O)c21
125 | 86 to 92 °C | O=C(O)[C@@H]1C[C@H]1c1ccccc1 (relative stereo)
126 | 175 °C | CCc1nc2ccccc2[nH]1
127 | 167 to 168 °C | Nc1cccc(-c2ccncc2)c1
128 | 102 °C | CC(=O)N(C)C(=O)COC(=O)c1ccccc1
129 | 209 to 210 °C | O=C(C=Cc1ccc2c(c1)OCO2)c1ccc(O)cc1
130 | 110 °C | COc1cc2c(cc1OC)C(CCc1ccc(Cl)cc1)N(C)CC2 (stereo not drawn)
131 | 109 °C | c1ccc(-c2noc(-c3ccccc3)n2)cc1
132 | 200 to 201 °C | CC1(c2ccccc2)CC(C(=NO)c2cc3ccccc3o2)C1 (stereo not drawn)
133 | 138 to 140 °C | Cc1nc2scc(-c3ccccc3)c2c(=O)n1NC(=O)c1ccc(F)cc1
